Measurements published in patent publication US11938189B2, “Compositions and methods for stabilizing protein-containing formulations” (Genentech, Inc., priority 2010, dated 2024).

Columns and labels:
[1] = in water at 20-25° C., cited from earlier work; for CMC Value (% w/v): cells printed without %
[2] = test system: anti-MUC16 monoclonal antibody; assay: Shaking-induced aggregation (150 rpm), percent monomer by size-exclusion chromatography; format: physicochemical; conditions: surfactant at one half of its CMC; shaking 150 rpm, 37° C., 64 hours; FIG. 1
Method: In this set of studies, a buffered solution (20 mM sodium phosphate buffer, pH 7.4) of monoclonal antibody was subjected to shaking on an orbital shaker at 150 rpm, at a controlled temperature of 37° C. These studies were carried out using a 3 ml solution fill of the antibody solution in a 6 cc glass vial. Samples were withdrawn at regular intervals and analyzed for percent monomer using size-exclusion chromatography. Various surfactants of the class of alkylglycosides were evaluated for their effectiveness to prevent protein aggregation during shaking. The surfactants were used at concentrations below their respective critical micelle concentration (CMC) or above their respective CMC.
The surfactants were employed at one half the concentration of their respective CMC values, i.e., 1.1 mM (0.035% w/v) n-decyl-β-D-glucopyranoside, 9 mM (0.24%) n-octyl-β-D-glucopyranoside and 0.04 mM (0.0035%) polysorbate 20.

[3] = test system: anti-CD11a monoclonal antibody; assay: Oxidation of Met256 on storage in surfactant-containing antibody solution; format: physicochemical; conditions: 0.1% w/v surfactant, pH 6.0, stored at 5° C. or 40° C. for 2 or 4 weeks; FIG. 15
Method: In a second experiment, oxidation of the Met256 amino acid residue in an anti-CD11a monoclonal antibody in solutions containing either n-decyl-β-D-glucopyranoside, n-octyl-β-D-glucopyranoside, or polysorbate 20 was evaluated. For this purpose, 3 ml of the buffered antibody solution (pH 6.0) containing 0.1% w/v of the surfactant was stored in 6 cc vials at either 5° C. or 40° C. for a period of either 2 or 4 weeks.

[4] = test system: Humanized anti-oxidized LDL monoclonal antibody; assay: Light-induced oxidation of tryptophan residues (LC/MS/MS tryptic peptide map); format: physicochemical; conditions: Light 24 hrs
Method: MAb samples and light treatment: Humanized anti-oxidized LDL monoclonal antibody, was produced at Genentech, Inc. from a CHO cell line. Three independent samples were prepared for photostability studies: 1) control sample, vial wrapped with aluminum foil; 2) test sample, vial light exposed (unwrapped); 3) test sample, vial light exposed (unwrapped) containing the specified non-ionic surfactant. Both control & light exposed samples were kept in a light box for 24 hrs. Light exposure following ICH guideline with following setting for a Atlas SUNTEST CPS+Light Box: Irradiance level=250 watts/square meter; Time set for 24 hours; Total UV dose=538 watt-hours/square meter; Total visible dose=1,320,000 lux-hours.
LC/MS/MS of tryptic MAb peptide map: Samples were digested with trypsin after reduction and alkylation. The resulting peptides were analyzed with a Thermo LTQ-Orbitrap mass spectrometer coupled with an Agilent 1200 capillary HPLC system. HPLC column: Jupiter 5 um C18 250×1.0 mm, flow rate: 70 uL/min, column oven temperature: 55° C. Solvent A: 0.1% TFA in water, B: 0.09% TFA in 90% ACN. Orbitrap setting: MS resolution 60000, MS/MS collected in data dependent mode, using LTQ.
The effect of light, and the protective effect of non-ionic surfactants, on the oxidation of tryptophan residues on an anti-oxidized LDL antibody was determined.

Compound	CMC Value [1] [mM]	CMC Value (w/v) [1] [% w/v]	other results
OC[C@H]1O[C@H](O[C@H]2[C@H](O)[C@@H](O)[C@H](OCCCCCC3CCCCC3)O[C@@H]2CO)[C@H](O)[C@@H](O)[C@@H]1O [5-cyclohexyl-pentyl-β-D-maltoside]	2.4	0.12	–
CCCCCCCCCCO[C@@H]1O[C@H](CO)[C@@H](O)[C@H](O)[C@H]1O [n-decyl-β-D-glucopyranoside]	2.2	0.07	prevention of shaking-induced loss of percent monomer [2]: effective in preventing loss of monomer; increase in percent oxidized Met256 vs initial sample [3]: no significant increase
OC[C@H]1O[C@H](O[C@H]2[C@H](O)[C@@H](O)[C@H](OCCCCC3CCCCC3)O[C@@H]2CO)[C@H](O)[C@@H](O)[C@@H]1O [4-cyclohexyl-butyl-β-D-maltoside]	7.6	0.37	–
CCCCCCO[C@@H]1O[C@H](CO)[C@@H](O)[C@H](O)[C@H]1O [n-hexyl-β-D-glucopyranoside]	250	6.6	% Oxidized Trp33 ([4]; 0.39 mM surfactant): 0.3%; % Oxidized Trp92 ([4]; 0.39 mM surfactant): 4.9%; % Oxidized Trp33 ([4]; 300 mM surfactant): 0.0%; % Oxidized Trp92 ([4]; 300 mM surfactant): 1.6%
CCCCCCCCCO[C@@H]1O[C@H](CO)[C@@H](O)[C@H](O)[C@H]1O [n-nonyl-β-D-glucopyranoside]	6.5	0.2	–
CCCCCCCCO[C@@H]1O[C@H](CO)[C@@H](O[C@H]2O[C@H](CO)[C@@H](O)[C@H](O)[C@H]2O)[C@H](O)[C@H]1O [n-octyl-β-D-maltopyranoside]	19.5	0.89	–
CC(CCO[C@@H]1O[C@H](CO)[C@@H](O)[C@H](O)[C@H]1O)C1CCCCC1 (stereo partly drawn) [3-cyclohexyl-1-butyl-β-D-glucoside]	1.8	0.058	–
CCCCCCCCCCO[C@@H]1O[C@H](CO)[C@@H](O[C@H]2O[C@H](CO)[C@@H](O)[C@H](O)[C@H]2O)[C@H](O)[C@H]1O [n-decyl-β-D-maltopyranoside]	1.8	0.087	–
CCCCCCCCCCCCO[C@@H]1O[C@H](CO)[C@@H](O[C@H]2O[C@H](CO)[C@@H](O)[C@H](O)[C@H]2O)[C@H](O)[C@H]1O [n-dodecyl-β-D-maltopyranoside, reference compound]	0.17	–	% Oxidized Trp33 ([4]; 0.03 mM surfactant): 0.0%; % Oxidized Trp92 ([4]; 0.03 mM surfactant): 10.6%; % Oxidized Trp33 ([4]; 0.39 mM surfactant): 0.1%; % Oxidized Trp92 ([4]; 0.39 mM surfactant): 2.7%; CMC Value (% w/v) [1]: 0.0087 % w/v
CCCCCCCCCO[C@@H]1O[C@H](CO)[C@@H](O[C@H]2O[C@H](CO)[C@@H](O)[C@H](O)[C@H]2O)[C@H](O)[C@H]1O [n-nonyl-β-D-maltopyranoside]	6	0.28	–
OC[C@H]1O[C@H](O[C@H]2[C@H](O)[C@@H](O)[C@H](OCCC3CCCCC3)O[C@@H]2CO)[C@H](O)[C@@H](O)[C@@H]1O [2-cyclohexyl-ethyl-β-D-maltoside]	120	5.4	–
CCCCCCO[C@@H]1O[C@H](CO)[C@@H](O[C@H]2O[C@H](CO)[C@@H](O)[C@H](O)[C@H]2O)[C@H](O)[C@H]1O [n-hexyl-β-D-maltopyranoside]	210	8.9	% Oxidized Trp33 ([4]; 0.39 mM surfactant): 0.3%; % Oxidized Trp92 ([4]; 0.39 mM surfactant): 5.7%; % Oxidized Trp33 ([4]; 300 mM surfactant): 0.0%; % Oxidized Trp92 ([4]; 300 mM surfactant): 2.2%
CCCCCCCO[C@@H]1O[C@H](CO)[C@@H](O)[C@H](O)[C@H]1O [n-heptyl-β-D-glucopyranoside]	70	1.9	–
CCCCCCCCCCCCO[C@@H]1O[C@H](CO)[C@@H](O)[C@H](O)[C@H]1O [n-dodecyl-β-D-glucopyranoside, reference compound]	0.19	–	% Oxidized Trp33 ([4]; 0.03 mM surfactant): 0.4%; % Oxidized Trp92 ([4]; 0.03 mM surfactant): 8.9%; CMC Value (% w/v) [1]: 0.0066 % w/v
OC[C@H]1O[C@H](O[C@H]2[C@H](O)[C@@H](O)[C@H](OCCCC3CCCCC3)O[C@@H]2CO)[C@H](O)[C@@H](O)[C@@H]1O [3-cyclohexyl-propyl-β-D-maltoside]	34.5	1.6	–
OC[C@H]1O[C@@H](OCCCC2CCCCC2)[C@H](O)[C@@H](O)[C@@H]1O [3-cyclohexyl-1-propyl-β-D-glucoside]	28	0.86	–
OC[C@H]1O[C@H](O[C@H]2[C@H](O)[C@@H](O)[C@H](OCC3CCCCC3)O[C@@H]2CO)[C@H](O)[C@@H](O)[C@@H]1O [cyclohexyl-methyl-β-D-maltoside]	340	15	–
